US12109176B1, “Effect of glycerol on biofilm forming bacteria and fungi that changes the microbes sensitivity to pro and anti-biofilm non-toxic, non-bonded plasma amino acids and amino acid derivatives” (priority 2023, dated 2024)
“Also recorded” adds a separate entry of the source.

Assays:
[1] = tested on: bacterial (S. aureus) biofilm and fungal biofilm (C. albicans); experiment: Biofilm inhibition assay, bacterial and fungal taken together; assay type: cell-based; settings: symbol marks the assay
Experimental: (§1) Two types of biofilm assays were performed: an inhibition assay and a disruption assay. The inhibition assay assesses the compound's ability to prevent biofilm development, while the disruption assay assesses the compound's ability to break up an existing mature biofilm.
(§2) All bacterial biofilm solutions were prepared in Tryptic Soy Broth (TSB), supplemented with 1% glucose (henceforth referred to as TSB-G). All subsequent procedures were performed in a manner that maintained sterility. A solution of each amino acid or an amino acid derivative to be tested was prepared in weight to volume concentrations ranging from 0.1-5.0%. Amino acids and amino acid derivatives were also tested in combinations. Compound solutions were homogenized with gentle agitation in the dark (4° C., 24 hours) before use.
(§3) 32 Amino acids and 2 amino acid derivatives of the amino acid serine that occur freely in human blood were tested. […] 31 of the 32 amino acids that were tested were the L-Isomers. Glycine has no stereoisomers. The 2 amino acid derivatives, ethanolamine and phosphoethanolamine were also tested. All biofilm assays were performed using 384-well non-tissue culture-treated polystyrene plates. The fungal species tested are as follows: Candida albicans, Candida guilliermondii, Candida parapsilosis, Candida glabrata, Candida tropicalis and Candida dubliniensis. The bacterial species tested are as follows: Staphylococci (standard wild type and methicillin-resistant strain USA300), Escherichia coli, Pseudomonas aeruginosa and Staphylococcus epidermidis.
(§4) Fungal strains were streaked on Yeast Peptone Dextrose (YPD) agar plates and incubated at 30° C. for 48 hours. A single colony from each strain to be tested was inoculated into YPD broth and grown for 12 hours at 30° C., shaking at 225 rpm. […] The cells were allowed to adhere to the plate for 90 minutes at 37° C. with shaking (350 rpm). […] The plate was further incubated for 24 hours at 37° C. with shaking (350 rpm). Media was carefully aspirated and the biofilm was measured by optical density at 600 nm. […] The cells were allowed to adhere to the plate for 90 minutes at 37° C. with shaking (350 rpm). […] The plate was further incubated for 24 hours at 37° C. with shaking (350 rpm). […] The plate was further incubated for 24 hours at 37° C. with shaking (350 rpm). Media was carefully aspirated, and the biofilm was measured by optical density at 600 nm.
(§5) Bacterial strains were streaked on Blood Agar plates (5% sheep blood in Tryptic Soy Broth) and incubated at 37° C. for 24 hours. A single colony from each strain to be tested was inoculated in a TSB broth and grown for 12 hours, at 37° C. with shaking (225 rpm). For the bacterial biofilm inhibition assays, 1 μL of saturated overnight cell culture was added to either 80 μL of TSB-G, or TSB-G supplemented with the amino acid compound solution to be tested, in a 384-well plate. The cells were allowed to adhere to the plate for 60 minutes at 37° C. without shaking. The media was carefully aspirated and 80 μL of TSB-G, or TSB-G supplemented with the amino acid compound solution was added to the plate. The plate was further incubated for 24 hours at 37° C. without shaking. Media was carefully aspirated and the biofilm was measured by optical density at 600 nm. Eight or twelve replicates were performed for each tested condition and the reported values are normalized to the control (TSB-G media only). For the bacterial biofilm disruption assays, 80 µL of TSB-G was added to the plate, along with 1 μL of overnight cell culture. The cells were allowed to adhere to the plate for 60 minutes at 37° C. with no shaking. The media was carefully aspirated and 80 μL of TSB-G was added to the plate. The plate was further incubated for 24 hours at 37° C. with no shaking. Media was carefully aspirated from the mature biofilm and 80 μL of TSB-G, or TSB-G supplemented with the amino acid to be tested, was gently added to the plate.

[2] = tested on: bacterial and fungal biofilm; experiment: In vitro testing on bacterial and fungal biofilm (assay not told apart); assay type: cell-based; settings: in vitro testing
Experimental: as §1, §2, §3, §4, §5

[3] = tested on: fungal biofilm (C. albicans); experiment: Fungal biofilm inhibition assay; assay type: cell-based, Candida albicans
Experimental: as §1, §2, §3, §4

[4] = tested on: fungal biofilm; experiment: In vitro testing on fungal biofilm (inhibition and/or disruption); assay type: cell-based
Experimental: as §1, §2, §3, §4

[5] = tested on: fungal biofilm (C. albicans); experiment: Fungal biofilm disruption assay; assay type: cell-based, Candida albicans
Experimental: as §1, §2, §3, §4

[6] = tested on: bacterial biofilm; experiment: In vitro testing on bacterial biofilm (inhibition and/or disruption); assay type: cell-based
Experimental: as §1, §2, §3
(§6) Bacterial strains were streaked on Blood Agar plates (5% sheep blood in Tryptic Soy Broth) and incubated at 37° C. for 24 hours. A single colony from each strain to be tested was inoculated in a TSB broth and grown for 12 hours, at 37° C. with shaking (225 rpm). For the bacterial biofilm inhibition assays, 1 μL of saturated overnight cell culture was added to either 80 μL of TSB-G, or TSB-G supplemented with the amino acid compound solution to be tested, in a 384-well plate. The cells were allowed to adhere to the plate for 60 minutes at 37° C. without shaking. The media was carefully aspirated and 80 μL of TSB-G, or TSB-G supplemented with the amino acid compound solution was added to the plate. The plate was further incubated for 24 hours at 37° C. without shaking. Media was carefully aspirated and the biofilm was measured by optical density at 600 nm. Eight or twelve replicates were performed for each tested condition and the reported values are normalized to the control (TSB-G media only). For the bacterial biofilm disruption assays, 80 µL of TSB-G was added to the plate, along with 1 μL of overnight cell culture. The cells were allowed to adhere to the plate for 60 minutes at 37° C. with no shaking. The media was carefully aspirated and 80 μL of TSB-G was added to the plate. The plate was further incubated for 24 hours at 37° C. with no shaking. Media was carefully aspirated from the mature biofilm and 80 μL of TSB-G, or TSB-G supplemented with the amino acid to be tested, was gently added to the plate. The plate was further incubated for 24 hours at 37° C. without shaking. Media was aspirated and the biofilm was measured by optical density at 600 nm. Twelve replicates were performed for each tested condition and the reported values are normalized to the control (TSB-G media only).

[7] = tested on: bacterial (S. aureus) biofilm; experiment: Bacterial biofilm disruption assay; assay type: cell-based, Staphylococcus aureus
Experimental: as §1, §2, §3, §6

[8] = Table D, Neutral = no effect on the biofilm
[9] = Table E, in the absence of an infusion of glycerol
[10] = Table F, in the presence of a sufficient concentration of glycerol
[11] = in the presence of a therapeutic concentration of glycerol

| SMILES | Neutral (square: Inhibition Biofilm Assay) [1, 8] | Neutral (square: Inhibition Biofilm Assay) [1, 9] | Neutral (square: Inhibition Biofilm Assay) [1, 10] | effect on fungal biofilm (in words) ([4]; in vitro testing) | effect on bacterial biofilm (in words) ([6]; in vitro testing) | Reduce or Inhibit F Biofilm (dots: Disruption Biofilm Assay) ([5]; Table D, 0.1 to 5.0%) | other results |
| --- | --- | --- | --- | --- | --- | --- | --- |
| N[C@@H](Cc1c[nH]cn1)C(=O)O [Histidine, L-histidine] | ▪ (Single square [ie. ▪] signifies little effect on the Inhibition Biofilm Assay (from about 10 to less than 30%)) | ▪ (Single square [ie. ▪] signifies little effect on the Inhibition Biofilm Assay (from about 10 to less than 30%)) | ▪ (Single square [ie. ▪] signifies little effect on the Inhibition Biofilm Assay (from about 10 to less than 30%)) |  |  |  | effect on bacterial and fungal biofilm (in words) [2]: neutral, having no effect on biofilm; also recorded: neutral |
| NCCO [Ethanolamine, ethanolamine] |  |  |  | antifungal biofilm effect |  |  | Reduce or Inhibit F Biofilm (squares: Inhibition Biofilm Assay) ([3]; Table D, 0.1 to 5.0%): ▪ (Single square [ie. ▪] signifies little effect on the Inhibition Biofilm Assay (from about 10 to less than 30%)); Reduce or Inhibit F Biofilm (squares: Inhibition Biofilm Assay) [3, 10]: ▪ (Single square [ie. ▪] signifies little effect on the Inhibition Biofilm Assay (from about 10 to less than 30%)) |
| N[C@@H](CCS)C(=O)O [Homocysteine, L-homocysteine] |  |  |  | antifungal biofilm effects |  |  |  |
| N[C@@H](Cc1ccc(O)cc1)C(=O)O [Tyrosine, L-tyrosine] |  |  |  |  |  |  | effect on bacterial and fungal biofilm (in words) [2]: neutral effect on biofilm; effect on bacterial and fungal biofilm (in words) ([2]; listed as tyrosine): neutral, having no effect on biofilm |
| CC(C)[C@H](N)C(=O)O [Valine, L-valine] |  |  |  | supported fungal biofilm formation; also recorded: pro-fungal biofilm effect; also recorded: promoted fungal biofilm formation | anti-bacterial biofilm effect |  | effect on fungal biofilm (in words) [4, 11]: lost its pro-fungal biofilm effect; effect on fungal biofilm (in words) ([4]; in vitro testing, listed as valine): supported the formation of biofilm made by biofilm-forming fungi; Promote F Biofilm (dots: Disruption Biofilm Assay) [5, 9]: ● (Single dot [ie. ●] signifies little effect on the Disruption Biofilm Assay (from about 10 to less than 30%)); effect on bacterial biofilm (in words) [6, 11]: anti-bacterial biofilm effect; effect on bacterial biofilm (in words) ([6]; in the presence of a therapeutic concentration of glycerol, listed as valine): anti-bacterial biofilm effect became dominant; Reduce or Inhibit B Biofilm (dots: Disruption Biofilm Assay) ([7]; Table D, 0.1 to 5.0%): ● (Single dot [ie. ●] signifies little effect on the Disruption Biofilm Assay (from about 10 to less than 30%)); Reduce or Inhibit B Biofilm (dots: Disruption Biofilm Assay) [7, 10]: ● (Single dot [ie. ●] signifies little effect on the Disruption Biofilm Assay (from about 10 to less than 30%)) |
| C[C@H](N)C(=O)O [Alanine, L-alanine] | ▪ (Single square [ie. ▪] signifies little effect on the Inhibition Biofilm Assay (from about 10 to less than 30%)) | ▪ (Single square [ie. ▪] signifies little effect on the Inhibition Biofilm Assay (from about 10 to less than 30%)) | ▪ (Single square [ie. ▪] signifies little effect on the Inhibition Biofilm Assay (from about 10 to less than 30%)) |  | promoted bacterial biofilm formation | ● (Single dot [ie. ●] signifies little effect on the Disruption Biofilm Assay (from about 10 to less than 30%)) |  |
| N[C@@H](Cc1c[nH]c2ccccc12)C(=O)O [Tryptophan, L-tryptophan] |  |  |  |  | promoted bacterial biofilm formation | ● (Single dot [ie. ●] signifies little effect on the Disruption Biofilm Assay (from about 10 to less than 30%)) | Reduce or Inhibit F Biofilm (dots: Disruption Biofilm Assay) [5, 10]: ● (Single dot [ie. ●] signifies little effect on the Disruption Biofilm Assay (from about 10 to less than 30%)) |
| N[C@@H](COP(=O)(O)O)C(=O)O [Phosphoserine, O-phospho-L-serine] | ▪ (Single square [ie. ▪] signifies little effect on the Inhibition Biofilm Assay (from about 10 to less than 30%)) | ▪ (Single square [ie. ▪] signifies little effect on the Inhibition Biofilm Assay (from about 10 to less than 30%)) | ▪ (Single square [ie. ▪] signifies little effect on the Inhibition Biofilm Assay (from about 10 to less than 30%)) | antifungal biofilm effects | antibacterial biofilm effect | ● (Single dot [ie. ●] signifies little effect on the Disruption Biofilm Assay (from about 10 to less than 30%)) | Reduce or Inhibit F Biofilm (dots: Disruption Biofilm Assay) [5, 10]: ● (Single dot [ie. ●] signifies little effect on the Disruption Biofilm Assay (from about 10 to less than 30%)); Reduce or Inhibit B Biofilm (dots: Disruption Biofilm Assay) ([7]; Table D, 0.1 to 5.0%): ● (Single dot [ie. ●] signifies little effect on the Disruption Biofilm Assay (from about 10 to less than 30%)); Reduce or Inhibit B Biofilm (dots: Disruption Biofilm Assay) [7, 10]: ● (Single dot [ie. ●] signifies little effect on the Disruption Biofilm Assay (from about 10 to less than 30%)) |
